Measured values taken from patent publication EP0092073A1, “Magnesium salt of chenodeoxycholic acid and ursodeoxycholic acid, the process for its preparation, and therapeutic compositions which contain it as active principle” (SCHWARZ ITALIA S.p.A., priority 1982, dated 1983).

Legend:
Assay type in all cases: in vivo
Mus musculus = assay: Acute lethality and toxicity, oral administration (gastric probe); set-up: key to Toxic symptomatology Type: NN = no symptomatology; D = depression; details: for % mortality at following times after administration 24 h / % mortality at following times after administration 7 days / Toxic symptomatology Type / Toxic symptomatology Latency: oral; for LD50 (mg/kg with reliability limits) 7 days after treatment: po, probit method
Description: (§1) Unless otherwise specified, the research was carried out using: a) Mg-UCD capsules as such; b) the powdered contents of Mg-UCD capsules; CDCA (chenodeoxycholic acid) and UDCA (ursodeoxycholic acid) as pure substance which in all cases was partly dissolved and partly suspended under warm conditions (T = 30°C) in 10% gum arabic mucilage (so as to administer 10-40 ml of liquid per kg orally). In certain cases, namely in the experiments involving parenteral administration, the active principle of Mg-UCD, the chenodeoxycholic acid and ursodeoxycholic acid were dissolved in distilled water of slightly alkaline pH (5-10 ml/kg).
(§2) The generally acute lethality, toxicity and tolerability were determined by oral administration of the Mg-UCD (by gastric probe) in the Mus musculus, rat and dog. Animals of both sexes were used, none of which were pregnant. They were fasted for about 12 hours before treatment (but allowing them free access to water). The investigations were carried out using the Mg-UCD in powder form. Comparative investigations were carried out on the rat and Mus musculus using the active principle by endoperitoneal administration, and chenodeoxycholic acid and ursodeoxycholic acid by oral administration (using a gastric probe). Each dose was administered to 20 rats or Mus musculus (10 male and 10 female) and to eight dogs (4 male and 4 female). The animals were observed attentively during the 7 days following administration, and any lethality, toxic symptoms, disturbances, functional variations determinable with the eye, behaviour etc. were noted.
(§3) The LD50 was determined 7 days after administration using the probit method.

rat = assay: as above; set-up: key to Toxic symptomatology Type: NN = no symptomatology; D = depression; details: for % mortality at following times after administration 24 h / % mortality at following times after administration 7 days / Toxic symptomatology Type / Toxic symptomatology Latency: oral; for LD50 (mg/kg with reliability limits) 7 days after treatment: po, probit method
Description: as §1, §2, §3

hampsters [1] = assay: Action on the formation of cholesterol calculi in the gall-bladder (cholesterol-enriched diet, 80 days); details: for % animals with calculi / % animals with crystals: cholesterol-enriched diet
Description: (§4) The investigations were carried out on hampsters (of female sex, but excluding those in a state of pregnancy) having an initial weight of 75-90 g. They were treated for 80 days with oral administration (by gastric probe) of MG-UCD (10-20 mg/kg/day), chenodeoxycholic acid (10-20 mg/kg/day) or ursodeoxycholic acid (10-20 mg/kg/day) (Tables 4 and 5). The animals were maintained for 80 consecutive days on a Nossan feed diet for rats, enriched with cholesterol (2 mg/g of food).
(§5) Each experimental group consisted of 10 units. After 80 days, the animals were narcotised with ethyl ether, and the bile was withdrawn, together with the calculi and crystals from the gall-bladder as described by Pearlman and coll. in Gastroenterology 77, 634 (1979).

hampsters [2] = assay: Bile lipid and bile acid contents of the bile (cholesterol-enriched diet, 80 days)
Description: as §4, §5
The bile acid, phospholipid, cholesterol, cholic acid, chenodeoxycholic acid, ursodeoxycholic acid, DCA (deoxycholic acid) and LCA (lithocholic acid) contents were evaluated in the bile by the methods described by Pearlman and coll. (see above).

patients = assay: Controlled study in comparison with the free acids; tolerability in patients
[3] = M. musculus F, 250 mg/kg (60 Dts/kg)
[4] = M. musculus F, 2500 mg/kg (600 Dts/kg)
[5] = M. musculus F, 5000 mg/kg (1200 Dts/kg)
[6] = M. musculus F, 10000 mg/kg (2400 Dts/kg)
[7] = M. musculus M, 250 mg/kg (60 Dts/kg)
[8] = M. musculus M, 2500 mg/kg (600 Dts/kg)
[9] = M. musculus M, 5000 mg/kg (1200 Dts/kg)
[10] = M. musculus M, 10000 mg/kg (2400 Dts/kg)
[11] = Rat F, 5000 mg/kg (1200 Dts/kg)
[12] = Rat F, 10000 mg/kg (2400 Dts/kg)
[13] = Rat M, 5000 mg/kg (1200 Dts/kg)
[14] = Rat M, 10000 mg/kg (2400 Dts/kg)
[15] = female hampsters, 10 mg/kg/day oral for 80 days
[16] = female hampsters, 20 mg/kg/day oral for 80 days

## double magnesium salt of chenodeoxycholic acid and ursodeoxycholic acid [Mg-UCD]
Mus musculus; [3]
  % mortality at following times after administration 24 h: 0%
  % mortality at following times after administration 7 days: 0%
  Toxic symptomatology Type: NN
Mus musculus; [4]
  % mortality at following times after administration 24 h: 0%
  % mortality at following times after administration 7 days: 0%
  Toxic symptomatology Latency: 5-10 min
  Toxic symptomatology Type: D
Mus musculus; [5]
  % mortality at following times after administration 24 h: 0%
  % mortality at following times after administration 7 days: 0%
  Toxic symptomatology Latency: 5-10 min
  Toxic symptomatology Type: D
Mus musculus; [6]
  % mortality at following times after administration 24 h: 10%
  % mortality at following times after administration 7 days: 10%
  Toxic symptomatology Latency: 5-10 min
  Toxic symptomatology Type: D
Mus musculus; M. musculus F
  LD50 (mg/kg with reliability limits) 7 days after treatment: 14011 (10884-18033) mg/kg
Mus musculus; [7]
  % mortality at following times after administration 24 h: 0%
  % mortality at following times after administration 7 days: 0%
  Toxic symptomatology Type: NN
Mus musculus; [8]
  % mortality at following times after administration 24 h: 0%
  % mortality at following times after administration 7 days: 0%
  Toxic symptomatology Latency: 5-10 min
  Toxic symptomatology Type: D
Mus musculus; [9]
  % mortality at following times after administration 24 h: 0%
  % mortality at following times after administration 7 days: 0%
  Toxic symptomatology Latency: 5-10 min
  Toxic symptomatology Type: D
Mus musculus; [10]
  % mortality at following times after administration 24 h: 10%
  % mortality at following times after administration 7 days: 10%
  Toxic symptomatology Latency: 5-10 min
  Toxic symptomatology Type: D
Mus musculus; M. musculus M
  LD50 (mg/kg with reliability limits) 7 days after treatment: 13100 (10515-16319) mg/kg
rat; Rat F, 250 mg/kg (60 Dts/kg)
  % mortality at following times after administration 24 h: 0%
  % mortality at following times after administration 7 days: 0%
  Toxic symptomatology Type: NN
rat; Rat F, 2500 mg/kg (600 Dts/kg)
  % mortality at following times after administration 24 h: 0%
  % mortality at following times after administration 7 days: 0%
  Toxic symptomatology Latency: 5-10 min
  Toxic symptomatology Type: D
rat; [11]
  % mortality at following times after administration 24 h: 0%
  % mortality at following times after administration 7 days: 0%
  Toxic symptomatology Latency: 5-10 min
  Toxic symptomatology Type: D
rat; [12]
  % mortality at following times after administration 24 h: 10%
  % mortality at following times after administration 7 days: 10%
  Toxic symptomatology Latency: 5-10 min
  Toxic symptomatology Type: D
rat; Rat F
  LD50 (mg/kg with reliability limits) 7 days after treatment: 13100 (10515-16319) mg/kg
rat; Rat M, 250 mg/kg (60 Dts/kg)
  % mortality at following times after administration 24 h: 0%
  % mortality at following times after administration 7 days: 0%
  Toxic symptomatology Type: NN
rat; Rat M, 2500 mg/kg (600 Dts/kg)
  % mortality at following times after administration 24 h: 0%
  % mortality at following times after administration 7 days: 0%
  Toxic symptomatology Latency: 5-10 min
  Toxic symptomatology Type: D
rat; [13]
  % mortality at following times after administration 24 h: 0%
  % mortality at following times after administration 7 days: 0%
  Toxic symptomatology Latency: 5-10 min
  Toxic symptomatology Type: D
rat; [14]
  % mortality at following times after administration 24 h: 10%
  % mortality at following times after administration 7 days: 10%
  Toxic symptomatology Latency: 5-10 min
  Toxic symptomatology Type: D
rat; Rat M
  LD50 (mg/kg with reliability limits) 7 days after treatment: 14011(10884-18033) mg/kg
Hampsters [1]; [15]
  % animals with calculi: 20%
  % animals with crystals: 20%
Hampsters [1]; [16]
  % animals with calculi: 0%
  % animals with crystals: 0%
Hampsters [1]; female hampsters, day 80, oral, 10 mg/kg/day
  Body weight (g ± s.e.) after following days 80: 152 ± 8 g
Hampsters [1]; hampster, oral, more intense than chenodeoxycholic acid or ursodeoxycholic acid
  appearance of cholesterol calculi and crystals in the gall-bladder: hinders the appearance of cholesterol calculi and crystals in the gall-bladder in a dose-dependent manner
Hampsters [2]; 10 mg/kg/day oral for 80 days
  Bile acids (expressed as molar % ± s.e.) Cheno-deoxycholic acid: 28.6 ± 2.9 molar %
  Bile acids (expressed as molar % ± s.e.) Cholic acid: 18.1 ± 2.6 molar %
  Bile acids (expressed as molar % ± s.e.) DCA: 13.4 ± 0.5 molar %
  Bile acids (expressed as molar % ± s.e.) LCA: 2.4 ± 0.1 molar %
  Bile acids (expressed as molar % ± s.e.) Urso-deoxycholic acid: 21.7 ± 2.9 molar %
  Bile lipids (expressed as molar % ± s.e.) Bile acids: 78.6 ± 5.3 molar %
  Bile lipids (expressed as molar % ± s.e.) Cholesterol: 6.9 ± 0.4 molar %
  Bile lipids (expressed as molar % ± s.e.) Phospho-lipids: 15.6 ± 1.7 molar %
Hampsters [2]; 20 mg/kg/day oral for 80 days
  Bile acids (expressed as molar % ± s.e.) Cheno-deoxycholic acid: 24.4 ± 3.1 molar %
  Bile acids (expressed as molar % ± s.e.) Cholic acid: 11.4 ± 1.7 molar %
  Bile acids (expressed as molar % ± s.e.) DCA: 10.5 ± 0.4 molar %
  Bile acids (expressed as molar % ± s.e.) LCA: 3.6 ± 0.2 molar %
  Bile acids (expressed as molar % ± s.e.) Urso-deoxycholic acid: 54.9 ± 3.6 molar %
  Bile lipids (expressed as molar % ± s.e.) Bile acids: 80.7 ± 4.7 molar %
  Bile lipids (expressed as molar % ± s.e.) Cholesterol: 4.7 ± 0.3 molar %
  Bile lipids (expressed as molar % ± s.e.) Phospho-lipids: 14.7 ± 1.9 molar %
patients; in particular hypotriglyceridemic, at much smaller doses than the individual bile acids
  anti-dislipidemic effect: modest anti-dislipidemic effect
patients; patients
  side effects: No significant side effects
patients; relatively small doses of the salt against double doses of each acid administered separately
  effects compared with the free acids: greater effects
